Assay results as given in ChEMBL document CHEMBL3885861, “Open TG-GATES”.

Species on record: Rattus norvegicus
Assay: Open TG-GATES - Regimen: Daily Repeat
Type: toxicity, organism-based, Sprague-Dawley
Parameters: regimen Daily Repeat, gender Male, age 6 weeks
Settings: in vivo, po, route gavage; for ALP / ALT / AST / BUN / CRE / Ca / Cl / DBIL / GLC / IP / K / LDH / Na / PL / RALB / TBIL / TC / TG / TP / gamma-GTP / A/G: tissue Plasma; for APTT / Bas / Eos / Fbg / Hb / Ht / Lym / MCH / MCHC / MCV / Mono / Neu / PT / Plat / RBC / Ret / WBC: tissue Blood; for KIDNEY_L / KIDNEY_R / KIDNEY_TOTAL: tissue Kidney; for LIVER: tissue Liver
[1] = 3 mg/kg, […], dose level Low, time 14 day
[2] = 3 mg/kg, […], dose level Low, time 28 day
[3] = 10 mg/kg, 72 h, dose level Middle, time 3 day
[4] = 10 mg/kg, […], dose level Middle, time 7 day
[5] = 10 mg/kg, […], dose level Middle, time 14 day
[6] = 10 mg/kg, […], dose level Middle, time 28 day
[7] = 30 mg/kg, 72 h, dose level High, time 3 day
[8] = 30 mg/kg, […], dose level High, time 7 day
[9] = 30 mg/kg, […], dose level High, time 14 day

## C[C@H]1C(=O)O[C@@H]2CCN3CC=C(COC(=O)[C@](C)(O)[C@]1(C)O)[C@H]23 [MONOCROTALINE]
[1]
  ALP: 1435.6 IU/L
  ALT: 41.4 IU/L
  AST: 76.6 IU/L
  BUN: 16.4 mg/dL
  CRE: 0.2 mg/dL
  Ca: 11 mg/dL
  Cl: 106.4 meq/L
  DBIL: 0 mg/dL
  GLC: 185.4 mg/dL
  IP: 6.2 mg/dL
  K: 4 meq/L
  LDH: 269.8 IU/L
  Na: 142.4 meq/L
  PL: 161.6 mg/dL
  RALB: 3 g/dL
  TBIL: 0 mg/dL
  TC: 92.2 mg/dL
  TG: 97 mg/dL
  TP: 5.9 g/dL
  gamma-GTP: 2.2 IU/L
[2]
  A/G: 1.1
  ALP: 1124.2 IU/L
  ALT: 41.8 IU/L
  AST: 87.4 IU/L
  BUN: 19 mg/dL
  CRE: 0.2 mg/dL
  Ca: 10.7 mg/dL
  Cl: 108.4 meq/L
  DBIL: 0 mg/dL
  GLC: 182.2 mg/dL
  IP: 6 mg/dL
  K: 4.3 meq/L
  LDH: 290.2 IU/L
  Na: 143.2 meq/L
  PL: 158.8 mg/dL
  RALB: 3.2 g/dL
  TBIL: 0.034 mg/dL
  TC: 81.2 mg/dL
  TG: 128.2 mg/dL
  TP: 6.1 g/dL
  gamma-GTP: 1.2 IU/L
[3]
  TERMINAL_BW: 231.2 g
  APTT: 19.4 s
  Bas: 0%
  Eos: 0.8%
  Fbg: 324.6 mg/dL
  Hb: 13.8 g/dL
  Ht: 40.1%
  Lym: 78.2%
  MCH: 21.5 pg
  MCHC: 34.5%
  MCV: 62.2 fL
  Mono: 2.8%
  Neu: 17.6%
  PT: 15.9 s
  Plat: 126.9 x10_4/uL
  RBC: 646.6 x10_4/ul
  Ret: 6%
  WBC: 73.2 x10_2/uL
  KIDNEY_L: 1 g
  KIDNEY_R: 1 g
  KIDNEY_TOTAL: 2 g
  LIVER: 10.7 g
  A/G: 1.3
  ALP: 1897.2 IU/L
  ALT: 40.8 IU/L
  AST: 73.6 IU/L
  BUN: 16.2 mg/dL
  CRE: 0.2 mg/dL
  Ca: 10.9 mg/dL
  Cl: 106.4 meq/L
  DBIL: 0.002 mg/dL
  GLC: 184.4 mg/dL
  IP: 7.2 mg/dL
  K: 4.6 meq/L
  LDH: 283 IU/L
  Na: 142 meq/L
  PL: 167.2 mg/dL
  RALB: 3.1 g/dL
  TBIL: 0.01 mg/dL
  TC: 90.4 mg/dL
  TG: 113.6 mg/dL
  TP: 5.5 g/dL
  gamma-GTP: 1 IU/L
[4]
  TERMINAL_BW: 249.4 g
  APTT: 21.5 s
  Bas: 0%
  Eos: 1%
  Fbg: 391.6 mg/dL
  Hb: 13.9 g/dL
  Ht: 39.4%
  Lym: 78.8%
  MCH: 20.7 pg
  MCHC: 35.1%
  MCV: 58.8 fL
  Mono: 4.2%
  Neu: 14.8%
  PT: 16.4 s
  Plat: 134.7 x10_4/uL
  RBC: 670.6 x10_4/ul
  Ret: 4.5%
  WBC: 135.7 x10_2/uL
  KIDNEY_L: 1.1 g
  KIDNEY_R: 1.1 g
  KIDNEY_TOTAL: 2.2 g
  LIVER: 11.6 g
  A/G: 1.1
  ALP: 1684.4 IU/L
  ALT: 46.6 IU/L
  AST: 87.8 IU/L
  BUN: 15.4 mg/dL
  CRE: 0.1 mg/dL
  Ca: 11 mg/dL
  Cl: 107.4 meq/L
  DBIL: 0.002 mg/dL
  GLC: 181.2 mg/dL
  IP: 6.6 mg/dL
  K: 4.3 meq/L
  LDH: 236 IU/L
  Na: 142 meq/L
  PL: 149 mg/dL
  RALB: 3 g/dL
  TBIL: 0.006 mg/dL
  TC: 82 mg/dL
  TG: 111 mg/dL
  TP: 5.7 g/dL
  gamma-GTP: 1.8 IU/L
[5]
  TERMINAL_BW: 274.8 g
  APTT: 21.2 s
  Bas: 0%
  Eos: 0.2%
  Fbg: 480 mg/dL
  Hb: 14.4 g/dL
  Ht: 41.1%
  Lym: 84.2%
  MCH: 20.5 pg
  MCHC: 35.2%
  MCV: 58.2 fL
  Mono: 4.8%
  Neu: 9.6%
  PT: 16.4 s
  Plat: 136.8 x10_4/uL
  RBC: 705.4 x10_4/ul
  Ret: 2.9%
  WBC: 250.8 x10_2/uL
  KIDNEY_L: 1.1 g
  KIDNEY_R: 1.2 g
  KIDNEY_TOTAL: 2.3 g
  LIVER: 13.3 g
  A/G: 0.8
  ALP: 2092 IU/L
  ALT: 88.8 IU/L
  AST: 174.4 IU/L
  BUN: 17.2 mg/dL
  CRE: 0.3 mg/dL
  Ca: 11.2 mg/dL
  Cl: 106.6 meq/L
  DBIL: 0.006 mg/dL
  GLC: 171 mg/dL
  IP: 5.9 mg/dL
  K: 4.8 meq/L
  LDH: 454.8 IU/L
  Na: 141 meq/L
  PL: 139 mg/dL
  RALB: 2.6 g/dL
  TBIL: 0.008 mg/dL
  TC: 71.6 mg/dL
  TG: 103.2 mg/dL
  TP: 5.8 g/dL
  gamma-GTP: 2.4 IU/L
[6]
  TERMINAL_BW: 321 g
  APTT: 26.9 s
  Bas: 0%
  Eos: 1%
  Fbg: 293.8 mg/dL
  Hb: 15.3 g/dL
  Ht: 43.1%
  Lym: 76.4%
  MCH: 18.8 pg
  MCHC: 35.6%
  MCV: 52.7 fL
  Mono: 4.6%
  Neu: 17%
  PT: 16.1 s
  Plat: 84.1 x10_4/uL
  RBC: 818 x10_4/ul
  Ret: 4.5%
  WBC: 308 x10_2/uL
  KIDNEY_L: 1.3 g
  KIDNEY_R: 1.3 g
  KIDNEY_TOTAL: 2.6 g
  LIVER: 15 g
  A/G: 0.9
  ALP: 1353.2 IU/L
  ALT: 82.8 IU/L
  AST: 155 IU/L
  BUN: 17.4 mg/dL
  CRE: 0.2 mg/dL
  Ca: 11 mg/dL
  Cl: 107.8 meq/L
  DBIL: 0.078 mg/dL
  GLC: 167.6 mg/dL
  IP: 6 mg/dL
  K: 4.5 meq/L
  LDH: 382.8 IU/L
  Na: 141.4 meq/L
  PL: 140 mg/dL
  RALB: 2.9 g/dL
  TBIL: 0.1 mg/dL
  TC: 79.6 mg/dL
  TG: 47.2 mg/dL
  TP: 6 g/dL
  gamma-GTP: 1.6 IU/L
[7]
  TERMINAL_BW: 232.9 g
  APTT: 17.3 s
  Bas: 0%
  Eos: 0.8%
  Fbg: 350.2 mg/dL
  Hb: 13.8 g/dL
  Ht: 39.9%
  Lym: 73.6%
  MCH: 21.4 pg
  MCHC: 34.5%
  MCV: 62.1 fL
  Mono: 4.4%
  Neu: 19.8%
  PT: 16.2 s
  Plat: 124.3 x10_4/uL
  RBC: 643.2 x10_4/ul
  Ret: 4.8%
  WBC: 80.8 x10_2/uL
  KIDNEY_L: 1 g
  KIDNEY_R: 1 g
  KIDNEY_TOTAL: 2.1 g
  LIVER: 12.5 g
  A/G: 1.3
  ALP: 1831.6 IU/L
  ALT: 47.2 IU/L
  AST: 112.4 IU/L
  BUN: 13.6 mg/dL
  CRE: 0.1 mg/dL
  Ca: 11.1 mg/dL
  Cl: 106.4 meq/L
  DBIL: 0.01 mg/dL
  GLC: 180.2 mg/dL
  IP: 7 mg/dL
  K: 4.5 meq/L
  LDH: 398 IU/L
  Na: 141.2 meq/L
  PL: 161.4 mg/dL
  RALB: 3.2 g/dL
  TBIL: 0.028 mg/dL
  TC: 88.4 mg/dL
  TG: 100 mg/dL
  TP: 5.7 g/dL
  gamma-GTP: 1.2 IU/L
[8]
  TERMINAL_BW: 230.5 g
  APTT: 24.3 s
  Bas: 0%
  Eos: 0.4%
  Fbg: 451.4 mg/dL
  Hb: 14.1 g/dL
  Ht: 40.7%
  Lym: 71.6%
  MCH: 20.2 pg
  MCHC: 34.6%
  MCV: 58.3 fL
  Mono: 4.8%
  Neu: 18.6%
  PT: 17.5 s
  Plat: 44 x10_4/uL
  RBC: 697.8 x10_4/ul
  Ret: 2.9%
  WBC: 122 x10_2/uL
  KIDNEY_L: 1.1 g
  KIDNEY_R: 1.1 g
  KIDNEY_TOTAL: 2.2 g
  LIVER: 11.3 g
  A/G: 1
  ALP: 1889.2 IU/L
  ALT: 273.2 IU/L
  AST: 504.2 IU/L
  BUN: 13 mg/dL
  CRE: 0.2 mg/dL
  Ca: 10.8 mg/dL
  Cl: 106 meq/L
  DBIL: 0.2 mg/dL
  GLC: 156 mg/dL
  IP: 6.9 mg/dL
  K: 4.4 meq/L
  LDH: 749.6 IU/L
  Na: 141 meq/L
  PL: 139.8 mg/dL
  RALB: 2.6 g/dL
  TBIL: 0.3 mg/dL
  TC: 86.4 mg/dL
  TG: 38.8 mg/dL
  TP: 5.3 g/dL
  gamma-GTP: 2.2 IU/L
[9]
  Mono: 7%
  BUN: 13.5 mg/dL
  CRE: 0.2 mg/dL
  TP: 4.9 g/dL
